Measurements reported in ChEMBL document CHEMBL5370661, “Development of Fluorescent AF64394 Analogues Enables Real-Time Binding Studies for the Orphan Class A GPCR GPR3” (J Med Chem, 2023).
The source made the active and inactive calls. The rule behind the calls is not given here.

Experiments:
[1] = molecular target: T1, G-protein coupled receptor 3 (Homo sapiens, UniProt P46089); test: Binding affinity to N-terminal 3xHA/Nluc-tagged full-length wild-type human GPR3 expressed in HEK293A cells using vivazine as substrate measured for 180 mins by time-course saturation based NanoBRET assay; assay type: cell-based; details: for Activity: HEK293-A
T1 sequence (P46089 whole entry): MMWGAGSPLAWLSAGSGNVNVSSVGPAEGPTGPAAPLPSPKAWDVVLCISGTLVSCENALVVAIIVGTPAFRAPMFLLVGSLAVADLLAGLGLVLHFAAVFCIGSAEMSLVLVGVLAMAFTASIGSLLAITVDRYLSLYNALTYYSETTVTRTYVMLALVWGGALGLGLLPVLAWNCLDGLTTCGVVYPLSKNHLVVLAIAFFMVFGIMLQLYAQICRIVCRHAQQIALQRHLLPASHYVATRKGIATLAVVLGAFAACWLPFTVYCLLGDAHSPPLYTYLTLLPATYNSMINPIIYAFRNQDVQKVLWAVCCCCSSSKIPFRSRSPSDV

[2] = molecular target: T1, G-protein coupled receptor 3; test: Total binding affinity to N-terminal 3xHA/Nluc-tagged full-length wild-type human GPR3 expressed in HEK293A cells using furimazine as substrate measured for 3 hrs by NanoBRET assay; assay type: cell-based, HEK293-A
[3] = molecular target: T1, G-protein coupled receptor 3; test: Binding affinity to N-terminal 3xHA/Nluc-tagged full-length wild-type human GPR3 expressed in HEK293A cells using vivazine as substrate by time-course saturation based NanoBRET assay; assay type: cell-based; details: HEK293-A, time 180.0 min, TDE = time-dependent effect
[4] = molecular target: T1, G-protein coupled receptor 3; test: Binding affinity to N-terminal 3xHA/Nluc-tagged full-length wild-type human GPR3 expressed in HEK293A cells using vivazine as substrate at <=30 uM measured for 180 mins by time-course saturation based NanoBRET assay; assay type: cell-based; details: HEK293-A
[5] = molecular target: T1, G-protein coupled receptor 3; test: Binding affinity to N-terminal 3xHA/Nluc-tagged full-length wild-type human GPR3 expressed in HEK293A cells assessed as increase in BRET ratio incubated for 180 mins by NanoBRET assay; assay type: cell-based; details: HEK293-A
[6] = molecular target: T1, G-protein coupled receptor 3; test: Binding affinity to N-terminal 3xHA/Nluc-tagged full-length wild-type human GPR3 expressed in HEK293A cells using vivazine as substrate at <10 uM measured for 180 mins by time-course saturation based NanoBRET assay; assay type: cell-based; details: HEK293-A
[7] = molecular target: T1, G-protein coupled receptor 3; test: Specific binding affinity to N-terminal 3xHA/Nluc-tagged full-length wild-type human GPR3 expressed in HEK293A cells using furimazine as substrate measured for 3 hrs by NanoBRET assay; assay type: cell-based, HEK293-A
[8] = Specific binding affinity to N-terminal 3xHA/Nluc-tagged full-length wild-type human GPR12 expressed in HEK293A cells using furimazine as substrate measured for 3 hrs by NanoBRET assay; assay type: cell-based; details: hek293-a
[9] = molecular target: T2, G-protein coupled receptor 6 (Homo sapiens, UniProt P46095); test: Specific binding affinity to full-length wild-type human brain GPR6 expressed in HEK293A cells using furimazine as substrate measured for 3 hrs by NanoBRET assay; assay type: cell-based, HEK293-A
T2 sequence (P46095 whole entry): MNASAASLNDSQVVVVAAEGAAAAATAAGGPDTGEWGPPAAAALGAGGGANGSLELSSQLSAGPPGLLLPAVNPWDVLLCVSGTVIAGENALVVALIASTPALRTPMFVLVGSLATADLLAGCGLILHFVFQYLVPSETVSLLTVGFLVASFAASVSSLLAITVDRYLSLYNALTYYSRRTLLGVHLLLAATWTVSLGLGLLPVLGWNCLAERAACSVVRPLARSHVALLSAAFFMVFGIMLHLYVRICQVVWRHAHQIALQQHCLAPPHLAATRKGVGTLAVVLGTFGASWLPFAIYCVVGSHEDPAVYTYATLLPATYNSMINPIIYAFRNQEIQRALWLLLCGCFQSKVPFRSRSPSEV

[10] = molecular target: T1, G-protein coupled receptor 3; test: Competitive total binding affinity to N-terminal 3xHA/Nluc-tagged full-length wild-type human GPR3 expressed in HEK293A cells using furimazine as substrate at 1 uM measured for 3 hrs in presence of AF64394 by NanoBRET assay; assay type: cell-based, HEK293-A
[11] = molecular target: T2, G-protein coupled receptor 6; test: Competitive total binding affinity to full-length wild-type human brain GPR6 expressed in HEK293A cells using furimazine as substrate at 1 uM measured for 3 hrs in presence of CVN424 by NanoBRET assay; assay type: cell-based, HEK293-A
[12] = molecular target: T1, G-protein coupled receptor 3; test: Modulation of N-terminal 3xHA/Nluc-tagged full-length wild-type human GPR3 expressed in HEK293A cells using furimazine as substrate at 1 uM measured for 3 hrs in presence of DPI by NanoBRET assay; assay type: cell-based, HEK293-A
[13] = molecular target: T1, G-protein coupled receptor 3; test: Binding affinity to N-terminal 3xHA/Nluc-tagged full-length wild-type human GPR3 expressed in HEK293A cells using vivazine as substrate assessed as increase in BRET ratio by time-course saturation based NanoBRET assay; assay type: cell-based; details: HEK293-A, filed as modulator
[14] = molecular target: T1, G-protein coupled receptor 3; test: Inverse agonist activity at N-terminal 3xHA/Nluc-tagged full-length wild-type human GPR3 expressed in HEK293A cells co-expressing Fluc-tagged CRE assessed as reduction in CRE gene expression at 10 uM incubated for 24 hrs by luciferase based assay; assay type: functional, cell-based; details: HEK293-A, filed as inverse agonist
HEK293-A [15] = test: Downregulation of CRE gene activity in HEK293-A cells expressing GPR6 incubated for 24 hrs by luciferase based assay; assay type: functional, cell-based; details: Homo sapiens
HEK293-A [16] = test: Downregulation of CRE gene activity in HEK293-A cells expressing GPR12 incubated for 24 hrs by luciferase based assay; assay type: functional, cell-based; details: Homo sapiens
[17] = system: G-protein coupled receptor 3 (Homo sapiens), P46089 [V186W,V187W,Y188W]; test: Binding affinity to Nluc-tagged GPR3 V186W/V187W/Y188W mutant (unknown origin) expressed in HEK293A cells assessed as decrease in cAMP level by biosensor based FRET assay; assay type: cell-based; details: HEK293-A
Chain of G-protein coupled receptor 3 (Homo sapiens), P46089 [V186W,V187W,Y188W] (P46089 whole entry V186W/V187W/Y188W): as the sequence (P46089 whole entry) above, with V186W, V187W, Y188W counted along it

[18] = system: G-protein coupled receptor 3 (Homo sapiens), P46089 [Y188W]; test: Binding affinity to Nluc-tagged GPR3 Y188W mutant (unknown origin) expressed in HEK293A cells assessed as decrease in cAMP level by biosensor based FRET assay; assay type: cell-based; details: HEK293-A, filed as modulator
Chain of G-protein coupled receptor 3 (Homo sapiens), P46089 [Y188W] (P46089 whole entry Y188W): as the sequence (P46089 whole entry) above, with Y188W counted along it

[19] = system: G-protein coupled receptor 3 (Homo sapiens), P46089 [V187W,Y188W]; test: Binding affinity to Nluc-tagged GPR3 V187W/Y188W mutant (unknown origin) expressed in HEK293A cells assessed as decrease in cAMP level by biosensor based FRET assay; assay type: cell-based; details: HEK293-A, filed as modulator
Chain of G-protein coupled receptor 3 (Homo sapiens), P46089 [V187W,Y188W] (P46089 whole entry V187W/Y188W): as the sequence (P46089 whole entry) above, with V187W, Y188W counted along it

HEK293-A [20] = test: Binding affinity to Nluc-tagged GPR3 T279A/Y280A mutant (unknown origin) expressed in HEK293A cells assessed as decrease in cAMP level by biosensor based FRET assay; assay type: cell-based; details: Homo sapiens, filed as modulator
[21] = Chemical stability of compound in DMSO assessed as compound degradation incubated for 104 days by RP-HPLC analysis; assay type: physicochemical; details: 2496 h; time 104 day
[22] = molecular target: T1, G-protein coupled receptor 3; test: Binding affinity to N-terminal 3xHA/Nluc-tagged full-length wild-type human GPR3 expressed in HEK293A cells using vivazine as substrate at 20 to 30 uM measured for 180 mins by time-course saturation based NanoBRET assay; assay type: cell-based; details: HEK293-A, dose 20-30 µM
[23] = Chemical stability of compound in aqueous solution assessed as compound degradation incubated for 104 days by RP-HPLC analysis; assay type: physicochemical; details: buffer, 2496 h; time 104 day

Row | SMILES | Activity [1] | EC50 [2] [nM] | Activity [3] | Activity [4] | also measured
1 | COCC[N+]1=C(/C=C/C=C2/N(CCCCCC(=O)NCCOCCOCCOCCOc3ccc(-c4cc(NCc5ccc(Cl)cc5OC(C)C)n5ncnc5n4)cc3)c3ccc(S(=O)(=O)O)cc3C2(C)CCCS(=O)(=O)O)C(C)(CCCS(=O)(=O)O)c2cc(S(=O)(=O)[O-])ccc21 (configuration not stated) | inactive | > 31600 | – | – | –
2 | COCC[N+]1=C(/C=C/C=C2/N(CCCCCC(=O)NCCOCCOCCOCCOCCOCCOc3ccccc3-c3cc(NCc4ccc(Cl)cc4OC(C)C)n4ncnc4n3)c3ccc(S(=O)(=O)O)cc3C2(C)CCCS(=O)(=O)O)C(C)(CCCS(=O)(=O)O)c2cc(S(=O)(=O)[O-])ccc21 (configuration not stated) | inactive | > 31600 | – | – | –
3 | CC(C)Oc1cc(Cl)ccc1CNc1cc(-c2ccc(OCCCCCCNC(=O)c3ccc(-c4c5ccc(N(C)C)cc5[o+]c5cc(N(C)C)ccc45)c(C(=O)[O-])c3)cc2)nc2ncnn12 | Dose-Dependent Effect | 11200 | Tde | Active | –
4 | CN(C)c1ccc2c(-c3ccc(C(=O)NCCCC(=O)Nc4ccc(CCN5CN(c6ccccc6)C6(CCN(CCCC(=O)c7ccc(F)cc7)CC6)C5=O)cc4)cc3C(=O)[O-])c3ccc(N(C)C)cc3[o+]c2c1 | – | – | – | – | Activity [5]: inactive
5 | COCC[N+]1=C(/C=C/C=C2/N(CCCCCC(=O)NCCOCCOCCOCCOc3cccc(-c4cc(NCc5ccc(Cl)cc5OC(C)C)n5ncnc5n4)c3)c3ccc(S(=O)(=O)O)cc3C2(C)CCCS(=O)(=O)O)C(C)(CCCS(=O)(=O)O)c2cc(S(=O)(=O)[O-])ccc21 (configuration not stated) | inactive | > 31600 | – | – | –
6 | CC(C)Oc1cc(Cl)ccc1CNc1cc(-c2ccccc2OCCOCCOCCOCCNC(=O)CCCCCN2/C(=C/C=C/C3=[N+](CCOO)c4ccc(S(=O)(=O)O)cc4C3(C)CCCS(=O)(=O)[O-])C(C)(CCCS(=O)(=O)O)c3cc(S(=O)(=O)O)ccc32)nc2ncnn12 (configuration not stated) | inactive | > 31600 | – | – | –
7 | CC(C)Oc1cc(Cl)ccc1CNc1cc(-c2cccc(OCCCCCCNC(=O)c3ccc(-c4c5ccc(N(C)C)cc5[o+]c5cc(N(C)C)ccc45)c(C(=O)[O-])c3)c2)nc2ncnn12 | Dose-Dependent Effect | 4470 | Tde | Active | Stability [21]: Stable
8 | CC(C)Oc1cc(Cl)ccc1CNc1cc(-c2cc(F)ccc2Cl)nc2ncnn12 | – | – | – | – | Activity [14]: Active; Activity [17]: inactive

More lines, main results first:

Row | Activity [1] | EC50 [2] [nM] | Activity [3] | Activity [4] | SMILES | also measured
9 | Dose-Dependent Effect | > 10000 | Tde | Active | CC(C)Oc1cc(Cl)ccc1CNc1cc(-c2ccc(OCCOCCOCCOCCNC(=O)c3ccc(-c4c5ccc(N(C)C)cc5[o+]c5cc(N(C)C)ccc45)c(C(=O)[O-])c3)cc2)nc2ncnn12 | Activity [6]: inactive
10 | Dose-Dependent Effect | > 10000 | Tde | Active | CC(C)Oc1cc(Cl)ccc1CNc1cc(-c2cccc(OCCOCCOCCOCCNC(=O)c3ccc(-c4c5ccc(N(C)C)cc5[o+]c5cc(N(C)C)ccc45)c(C(=O)[O-])c3)c2)nc2ncnn12 | Activity [6]: inactive
11 | – | 891 | – | – | CC(C)Oc1cc(Cl)ccc1CNc1cc(-c2ccccc2OCCCCCCNC(=O)c2ccc(-c3c4ccc(N(C)C)cc4[o+]c4cc(N(C)C)ccc34)c(C(=O)[O-])c2)nc2ncnn12 | Kd [7]: 302 nM; Activity ([3]; filed as modulator): Tde; Kd [1]: 102 nM; Activity ([1]; filed as modulator): Dose-Dependent Effect; Activity ([4]; filed as modulator): Active; pKd [8]: 7.12; Kd [9]: 66.1 nM; IC50 [10]: 1260 nM; Ki [10]: 295 nM; IC50 [11]: 214 nM; Ki [11]: 13.2 nM; EC50 [12]: 1410 nM; Activity [13]: Dose-Dependent Effect; Activity [14]: Active; Activity (HEK293-A [15]): Active; Activity (HEK293-A [16]): Active; Activity ([17]; filed as modulator): Active; Activity [18]: Active; Activity [19]: Active; Activity (HEK293-A [20]): Active
12 | Dose-Dependent Effect | 4470 | Tde | Active | CC(C)Oc1cc(Cl)ccc1CNc1cc(-c2ccccc2OCCOCCOCCOCCOCCOCCNC(=O)c2ccc(-c3c4ccc(N(C)C)cc4[o+]c4cc(N(C)C)ccc34)c(C(=O)[O-])c2)nc2ncnn12 | Activity [22]: inactive
13 | Dose-Dependent Effect | 3390 | Tde | Active | CC(C)Oc1cc(Cl)ccc1CNc1cc(-c2ccccc2OCCOCCOCCOCCNC(=O)c2ccc(-c3c4ccc(N(C)C)cc4[o+]c4cc(N(C)C)ccc34)c(C(=O)[O-])c2)nc2ncnn12 | Stability [23]: Stable; Activity [22]: inactive
